According to patent US20060229233A1, “Compositions and methods for treating neurological disorders” (ID Biomedical Corporation, priority 2004, published 2006):
Marks after values point to notes of the source that are not given here.

Assays:
[1] = system: Tg2576 APP transgenic mice; assay: EAE clinical score in PLP-immunized Tg2576 APP transgenic mice; assay type: in vivo; conditions: PLP immunization in CFA
Text: In order to determine whether the effect was unique to MOG-induced EAE, EAE was induced with proteolipid protein (PLP) peptide (amino acids 139-151) in CFA. A 76% reduction of staining for Aβ fibrils was found and a 70% reduction in Aβ levels in animals with PLP induced EAE (p<0.02) (See Table 2, FIG. 3A). In order to induce EAE with PLP, Tg2576 mice as described by Hsiao, K. et al., Science 274 (5284):99-102 (1996) were utilized, which are on a B6/SJL background. Similar results were found with Tg2576 mice and J20 immunized mice described by Mucke et al., Ann NY Acad Sci (777) 82-88 (1996), to induce MOG-EAE (See Table 1). […] Of note, there was no difference in the total AS (amyloid) load in J20 mice greater than 13 months in age when compared to Tg2576 mice greater than 16 months of age.
Induction and clinical evaluation of EAE in APP+ mice. (B6D2)F1 or (B6XSJL)F1 APP+ (WT or B-cell deficient μMT) and non-tg littermates were immunized in the hind footpads with 100 μg MOG(35-55), PLP 139-151 or 100 μg β-amyloid peptide (1-40) in CFA. […] Animals were monitored for symptoms of EAE beginning 7 days after immunization and scored as follows: 0, no disease; 1, tail paralysis; 2, hind limb weakness; 3, hind limb paralysis; 4, hind limb plus forelimb paralysis; and 5, moribund.

Aβ = assay: Anti-Aβ antibody level (IgG, OD 450) in Tg2576 APP transgenic mice; assay type: in vivo
Experimental: Antibody levels were measured against Aβ in animals immunized with MOG or PLP to determine if there was cross reactivity with Aβ and Aβ antibody titers as compared to those from animals immunized with Aβ. […] To definitively establish that antibodies were not playing a role, 16-month-old J20 mice bred to μMT B-cell deficient mice were immunized with MOG 35-55 in CFA followed by administration of Pertussis toxin.

Aβ40 and Aβ42 = assay: Total brain Aβ by ELISA, Tg2576 APP transgenic mice; assay type: in vivo
Text: (§1) In order to determine whether the effect was unique to MOG-induced EAE, EAE was induced with proteolipid protein (PLP) peptide (amino acids 139-151) in CFA. A 76% reduction of staining for Aβ fibrils was found and a 70% reduction in Aβ levels in animals with PLP induced EAE (p<0.02) (See Table 2, FIG. 3A). In order to induce EAE with PLP, Tg2576 mice as described by Hsiao, K. et al., Science 274 (5284):99-102 (1996) were utilized, which are on a B6/SJL background. Similar results were found with Tg2576 mice and J20 immunized mice described by Mucke et al., Ann NY Acad Sci (777) 82-88 (1996), to induce MOG-EAE (See Table 1). […]
(§2) Amyloid quantification. To quantify amyloid burden, the right hemisphere was extracted in 5.0 M guanidinium-chloride (pH 8) for 3 hours at room temperature. […] Brains were frozen in the presence of OCT paraformaldehyde, cut to 14-μm longitudinal sections used for immunohistological staining and amyloid fibril quantification. Well-defined hippocampal regions (Bregma −1.34), were selected for quantification of the amount of amyloid fibril in plaques using thioflavin-S staining. Images (magnification ×20) from these sections were collected from a 3CCD color video camera and analyzed with appropriate software (NIH; Imaging Research). The amount of amyloid fibril was expressed as a percentage per mm^2 hippocampal region as measured by the software.

Aβ fibrils = assay: Thioflavin-S quantification of Aβ fibrils in hippocampus, Tg2576 APP transgenic mice; assay type: in vivo
Text: as §1, §2

activated microglia = assay: Microglia activation (CD11b staining) in PLP-immunized animals; assay type: in vivo, mice; conditions: PLP immunization; p<0.001
[2] = PLP immunization in CFA, Tg2576 APP transgenic mice

## proteolipid protein (PLP) peptide (amino acids 139-151) (CHCLGKWLGHPDK; UniProt P60202 139-151, looked up, fragment)
[1]
  EAE score: 1.7 ± 0.7
Aβ; PLP immunization
  anti-Aβ antibodies: not detected
Aβ; level of OD 450 at titer of 1:500 IgG, Tg2576 APP transgenic mice
  Anti-Aβ Antibody: 0 OD 450
Aβ40 and Aβ42; [2]
  Total brain Aβ: 47.7 ± 18.4 ^a ng/ml
Aβ40 and Aβ42; PLP induced EAE, Tg2576 mice
  reduction in Aβ levels: 70%
Aβ fibrils; [2]
  % Area of thioflavin positive Aβ plaques (hippocampus): 0.68 ± 0.2 ^b %
Aβ fibrils; PLP induced EAE, Tg2576 mice
  reduction of staining for Aβ fibrils: 76%
Activated microglia
  microglia activation: increased levels of microglia activation
